Literature values in patent US7892575B2, “Orodispersible pharmaceutical composition for oromucosal or sublingual administration of agomelatine” (Les Laboratoires Servier, priority 2005, dated 2011).

Details: humans

In the case of `COc1ccc2cccc(CCNC(C)=O)c2c1` [agomelatine, N-[2-(7-methoxy-1-naphthyl)ethyl]acetamide], the “bioavailability by the oral route in relation to the parenteral route” value is given as “very low”.
